Data reported in patent EP4810052A2, “HCRHR2 SELECTIVE POLYPEPTIDES” (Gubra A/S, priority 2023, dated 2026).
Starred links: 1 amine or outer side, 2 acyl side, 3 side chain; linkers in the order of their positions; H or OH if unused. Residues, ends and D or L forms follow the SMILES beside them. Groups on a side chain read outwards from the residue. *: point of attachment. C20 diacid = O=C(O)CCCCCCCCCCCCCCCCCCC(=O)*; γGlu = O=C(O)[C@H](CCC(=O)[*:2])N[*:1]; AEEA = NCCOCCOCC(=O)O

What was measured:
[1] = Telemetry in conscious healthy pigs; format: in vivo; settings: study A
Protocol: PK/PD/safety properties of SEQ ID NO: 3 were evaluated in freely moving conscious healthy pigs by […].
In study part A, the effects of an ascending dose regime of SEQ ID NO: 3, (0.03, 0.1, 0.3 and 1.0 mg/kg) was compared to placebo. Primary endpoints were blood pressure, heart rate and ECG measurements.
In study part B, the effect of repeated dosing (once weekly, for 4 weeks) with a single dose of SEQ ID NO: 3 (0.3 mg/kg) was compared to placebo. Primary endpoints were blood pressure, heart rate and ECG measurements.

[2] = Telemetry in mice (blood pressure, heart frequency); format: in vivo
Protocol: Blood pressure and heart frequency were monitored in freely moving conscious mice by radiotelemetry (PA-C10, Data Sciences). Briefly, analgesia with metamizole (100 mg / kg sc) was performed. For implantation of the telemetry transmitter, the animals were anesthetized with isoflurane with 5% induction and 2% maintenance. The neck was opened in the area of the hyoid bone up to the sternum in the median line. A subcutaneous pocket for the transmitter housing was prepared. The dextra carotid artery was then bluntly exposed and clamped. The […] was pushed caudally into the carotid artery through an incision. The catheter was fixed with a monofilament prolene thread, which also closed the incision. The vessel was also ligated cranially, and the clamp was then removed. The transmitter housing was pushed subcutaneously into a prepared skin pocket on the side opposite the catheter. Finally, the skin wound was closed. Postoperatively, an antibiotic (Ursocyclin® 10, Serumwerk Bernburg AG, Germany; 400 mg/l drinking water for 10 days) and an analgesic (Rimadyl®, 4 mg/kg sc for 3 days) were administered postoperatively.
For arterial blood pressure measurements, the animals were kept in a 12h: 12h day night cycle in a suitable room for at least one day before the first measurement. Animals were administrated s.c once daily in the morning for 7 consecutive days with either 1) Placebo, 2) SEQ ID NO: 3, 10 nmol/kg, 3) SEQ ID NO: 3, 30 nmol/kg or 4) SEQ ID NO: 3, 100 nmol/kg in a cross over design with 2 animals per group (n = 6-8) per week and with 1 week washout between treatments. The telemetric measurement took place over 24 hours.
For statistical analysis, 5 hours means were calculated starting from one hour after dosing and one hour after lights off. All data were evaluated using a 2-way ANOVA with Dunnett's test.

[3] = conscious healthy mice, s.c. once daily 7 days, 10-100 nmol/kg
[4] = mice, 10 nmol/kg, 1. dark period
[5] = mice, 10 nmol/kg, 2. dark period
[6] = mice, 10 nmol/kg, 3. dark period
[7] = mice, 10 nmol/kg, 4. dark period
[8] = mice, 10 nmol/kg, 5. dark period
[9] = mice, 10 nmol/kg, 6. dark period
[10] = mice, 10 nmol/kg, Baseline dark period
[11] = mice, 30 nmol/kg, 1. dark period
[12] = mice, 30 nmol/kg, 2. dark period
[13] = mice, 30 nmol/kg, 3. dark period
[14] = mice, 30 nmol/kg, 4. dark period
[15] = mice, 30 nmol/kg, 5. dark period
[16] = mice, 30 nmol/kg, 6. dark period
[17] = mice, 30 nmol/kg, Baseline dark period
[18] = mice, 100 nmol/kg, 1. dark period
[19] = mice, 100 nmol/kg, 2. dark period
[20] = mice, 100 nmol/kg, 3. dark period
[21] = mice, 100 nmol/kg, 4. dark period
[22] = mice, 100 nmol/kg, 5. dark period
[23] = mice, 100 nmol/kg, 6. dark period
[24] = mice, 100 nmol/kg, Baseline dark period

For `CC[C@H](C)[C@H](N)C(=O)N[C@H](C(=O)N[C@@H](CC(C)C)C(=O)N[C@@H](CO)C(=O)N[C@@H](CC(C)C)C(=O)N[C@@H](CC(=O)O)C(=O)N[C@H](C(=O)N1CCC[C@H]1C(=O)N[C@H](C(=O)NCC(=O)N[C@@H](CC(C)C)C(=O)N[C@@H](CC(C)C)C(=O)N[C@@H](CCC(N)=O)C(=O)N[C@H](C(=O)N[C@@H](CC(C)C)C(=O)N[C@@H](CC(C)C)C(=O)N[C@@H](CCC(=O)O)C(=O)N[C@@H](CCC(N)=O)C(=O)N[C@@H](C)C(=O)N[C@@H](CCCNC(=N)N)C(=O)N[C@@H](C)C(=O)N[C@@H](CCCNC(=N)N)C(=O)N[C@@H](C)C(=O)N[C@@H](C)C(=O)N[C@@H](CCCNC(=N)N)C(=O)N[C@@H](CCC(=O)O)C(=O)N[C@@H](CCC(N)=O)C(=O)N[C@@H](C)C(=O)N[C@@H](CCCCNC(=O)COCCOCCNC(=O)COCCOCCNC(=O)CC[C@H](NC(=O)CC[C@H](NC(=O)CCCCCCCCCCCCCCCCCCC(=O)O)C(=O)O)C(=O)O)C(=O)N[C@H](C(=O)N[C@@H](CC(N)=O)C(=O)N[C@@H](C)C(=O)N[C@@H](CCC(=O)O)C(=O)N[C@H](C(=O)N[C@@H](CC(C)C)C(=O)N[C@@H](C)C(=O)N[C@@H](CCC(=O)O)C(=O)N[C@H](C(N)=O)C(C)C)[C@@H](C)CC)[C@@H](C)O)[C@@H](C)CC)[C@@H](C)CC)C(C)C)C(C)C` [SEQ ID NO: 3] (H-IVLSLDVPIGLLQILLEQARARAAREQAK([AEEA-AEEA-γGlu-γGlu-C20 diacid])TNAEILAEV-NH2), the Heart rate [1] was “remained unaffected”, the “mean arterial blood pressure” value [1] was “remained unaffected” and the “relaxation of the left ventricle” value [1] was “not affected”. For the same compound, the “systemic or cardiac hemodynamics (LV end diastolic pressure, time constant of relaxation, baroreceptor sensitivity, heart rate variability)” value [1] was “No relevant findings”, the PR-Interval ([1]; ECG) was “slight decrease” and the QT-Interval ([1]; ECG) was “unaffected”. The “inotropic effects (contractility)” value ([1]; ascending s.c. doses 0.03-1.0 mg/kg) was “long-lasting positive ionotropic effects”, the Heart rate [2, 3] was “permanent increase” and the “mean arterial blood pressure” value [2, 3] was “transient and dose-dependent effect”. The Heart rate [2, 4] was 617.82 ± 17.8 BPM, the Mean arterial pressure [2, 4] was 102.19 ± 4.0 mmHg and the Heart rate ([2]; mice, 10 nmol/kg, 1. dose) was 590.34 ± 26.4 BPM. For the same compound, the Mean arterial pressure ([2]; mice, 10 nmol/kg, 1. dose) was 97.23 ± 3.7 mmHg, the Heart rate [2, 5] was 576.21 ± 15.5 BPM and the Mean arterial pressure [2, 5] was 102.50 ± 2.9 mmHg. The Heart rate ([2]; mice, 10 nmol/kg, 2. dose) was 526.42 ± 18.4 BPM, the Mean arterial pressure ([2]; mice, 10 nmol/kg, 2. dose) was 89.86 ± 2.5 mmHg and the Heart rate [2, 6] was 570.38 ± 9.8 BPM. The Mean arterial pressure [2, 6] was 101.92 ± 1.5 mmHg, the Heart rate ([2]; mice, 10 nmol/kg, 3. dose) was 517.24 ± 12.1 BPM and the Mean arterial pressure ([2]; mice, 10 nmol/kg, 3. dose) was 89.07 ± 1.9 mmHg. It also gave a Heart rate [2, 7] of 557.65 ± 11.8 BPM, a Mean arterial pressure [2, 7] of 103.17 ± 1.7 mmHg and a Heart rate ([2]; mice, 10 nmol/kg, 4. dose) of 521.88 ± 17.1 BPM. It also gave a Mean arterial pressure ([2]; mice, 10 nmol/kg, 4. dose) of 96.25 ± 1.4 mmHg, a Heart rate [2, 8] of 548.23 ± 8.3 BPM and a Mean arterial pressure [2, 8] of 105.59 ± 1.5 mmHg. It also gave a Heart rate ([2]; mice, 10 nmol/kg, 5. dose) of 515.46 ± 3.8 BPM, a Mean arterial pressure ([2]; mice, 10 nmol/kg, 5. dose) of 93.27 ± 1.8 mmHg and a Heart rate [2, 9] of 571.18 ± 17.4 BPM. It also gave a Mean arterial pressure [2, 9] of 104.54 ± 1.8 mmHg, a Heart rate ([2]; mice, 10 nmol/kg, 6. dose) of 538.37 ± 13.6 BPM and a Mean arterial pressure ([2]; mice, 10 nmol/kg, 6. dose) of 99.01 ± 3.0 mmHg. For the same compound, the Heart rate [2, 10] was 573.24 ± 24.3 BPM, the Mean arterial pressure [2, 10] was 117.13 ± 6.7 mmHg and the Heart rate [2, 11] was 636.57 ± 28.2 BPM. It also gave a Mean arterial pressure [2, 11] of 97.14 ± 2.8 mmHg, a Heart rate ([2]; mice, 30 nmol/kg, 1. dose) of 637.60 ± 39.0 BPM and a Mean arterial pressure ([2]; mice, 30 nmol/kg, 1. dose) of 83.81 ± 3.9 mmHg. It also gave a Heart rate [2, 12] of 579.68 ± 23.9 BPM, a Mean arterial pressure [2, 12] of 102.00 ± 4.4 mmHg and a Heart rate ([2]; mice, 30 nmol/kg, 2. dose) of 534.13 ± 15.4 BPM. The Mean arterial pressure ([2]; mice, 30 nmol/kg, 2. dose) was 89.68 ± 5.3 mmHg, the Heart rate [2, 13] was 621.30 ± 9.5 BPM and the Mean arterial pressure [2, 13] was 106.02 ± 3.9 mmHg. It also gave a Heart rate ([2]; mice, 30 nmol/kg, 3. dose) of 524.21 ± 17.2 BPM, a Mean arterial pressure ([2]; mice, 30 nmol/kg, 3. dose) of 93.98 ± 4.5 mmHg and a Heart rate [2, 14] of 650.03 ± 9.0 BPM. It also gave a Mean arterial pressure [2, 14] of 106.67 ± 4.8 mmHg, a Heart rate ([2]; mice, 30 nmol/kg, 4. dose) of 576.95 ± 21.0 BPM and a Mean arterial pressure ([2]; mice, 30 nmol/kg, 4. dose) of 94.91 ± 5.0 mmHg. For the same compound, the Heart rate [2, 15] was 628.77 ± 14.9 BPM, the Mean arterial pressure [2, 15] was 107.74 ± 5.7 mmHg and the Heart rate ([2]; mice, 30 nmol/kg, 5. dose) was 552.59 ± 12.9 BPM. The Mean arterial pressure ([2]; mice, 30 nmol/kg, 5. dose) was 94.31 ± 5.2 mmHg, the Heart rate [2, 16] was 625.92 ± 11.6 BPM and the Mean arterial pressure [2, 16] was 109.48 ± 6.3 mmHg. The Heart rate ([2]; mice, 30 nmol/kg, 6. dose) was 558.58 ± 15.1 BPM, the Mean arterial pressure ([2]; mice, 30 nmol/kg, 6. dose) was 97.05 ± 6.6 mmHg and the Heart rate [2, 17] was 573.65 ± 26.2 BPM. For the same compound, the Mean arterial pressure [2, 17] was 111.32 ± 3.0 mmHg, the Heart rate [2, 18] was 593.28 ± 23.1 BPM and the Mean arterial pressure [2, 18] was 86.82 ± 2.2 mmHg. For the same compound, the Heart rate ([2]; mice, 100 nmol/kg, 1. dose) was 692.31 ± 7.0 BPM, the Mean arterial pressure ([2]; mice, 100 nmol/kg, 1. dose) was 83.22 ± 5.6 mmHg and the Heart rate [2, 19] was 517.97 ± 16.2 BPM. It also gave a Mean arterial pressure [2, 19] of 98.30 ± 4.8 mmHg, a Heart rate ([2]; mice, 100 nmol/kg, 2. dose) of 507.39 ± 8.1 BPM and a Mean arterial pressure ([2]; mice, 100 nmol/kg, 2. dose) of 89.63 ± 4.9 mmHg. It also gave a Heart rate [2, 20] of 591.77 ± 7.0 BPM, a Mean arterial pressure [2, 20] of 101.88 ± 5.1 mmHg and a Heart rate ([2]; mice, 100 nmol/kg, 3. dose) of 536.49 ± 10.4 BPM. For the same compound, the Mean arterial pressure ([2]; mice, 100 nmol/kg, 3. dose) was 92.77 ± 4.1 mmHg, the Heart rate [2, 21] was 606.21 ± 10.1 BPM and the Mean arterial pressure [2, 21] was 103.60 ± 5.3 mmHg. The Heart rate ([2]; mice, 100 nmol/kg, 4. dose) was 560.41 ± 16.0 BPM, the Mean arterial pressure ([2]; mice, 100 nmol/kg, 4. dose) was 94.17 ± 3.4 mmHg and the Heart rate [2, 22] was 619.17 ± 11.0 BPM. It also gave a Mean arterial pressure [2, 22] of 103.68 ± 4.4 mmHg, a Heart rate ([2]; mice, 100 nmol/kg, 5. dose) of 554.35 ± 15.3 BPM and a Mean arterial pressure ([2]; mice, 100 nmol/kg, 5. dose) of 91.26 ± 2.0 mmHg. For the same compound, the Heart rate [2, 23] was 612.05 ± 11.8 BPM, the Mean arterial pressure [2, 23] was 103.45 ± 3.1 mmHg and the Heart rate ([2]; mice, 100 nmol/kg, 6. dose) was 550.11 ± 16.2 BPM. It also gave a Mean arterial pressure ([2]; mice, 100 nmol/kg, 6. dose) of 88.76 ± 1.3 mmHg, a Heart rate [2, 24] of 581.49 ± 7.7 BPM and a Mean arterial pressure [2, 24] of 108.55 ± 1.2 mmHg.
